Measured values taken from PubChem BioAssay AID328 (DTP/NCI, 2004).
“And” between values parts separate entries of the source, which are not always exact repeats. Equal entries are not always repeated. Inconclusive results and toxic doses are left out. How the source made its calls: active means survival T/C of 150% or more; inactive means T/C below 125% in these data.

System: BDF1 mice, P388 leukemia ip, median survival T/C
Experiment: NCI In Vivo Anticancer Drug Screen. Data for tumor model P388 Leukemia (intraperitoneal) in B6D2F1 (BDF1) mice
Conditions: endpoint: median survival time, higher = longer survival
Summary of the method: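 In tumour-bearing mice, survival after compound treatment is set against the vehicle group and given as a quotient.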

[1] = dose: 100.0 mg/kg/injection, schedule: Q04DX003 (ip), vehicle: saline with Tween-80
[2] = dose: 200.0 mg/kg/injection, schedule: Q04DX003 (ip), vehicle: saline with Tween-80
[3] = dose: 400.0 mg/kg/injection, schedule: Q04DX003 (ip), vehicle: saline with Tween-80
[4] = dose: 50.0 mg/kg/injection, schedule: Q01DX009 (ip), vehicle: saline with Tween-80
[5] = dose: 100.0 mg/kg/injection, schedule: Q01DX009 (ip), vehicle: saline with Tween-80

Measured: T/C

Cc1c(C)c(Br)c(C)c(-c2c(O)c(Br)c(-c3c(C)c(C)c(C)c(Br)c3C)c(O)c2Br)c1C
inactive: [1] 100 % of control | [2] 90 % of control | [3] 90 % of control

COc1cccc2c1C(=O)c1c(O)c3c(c(O)c1C2=O)CC(O)(C(C)=O)CC3O (centres undefined)
inactive: dose: 1.25 mg/kg/injection, schedule: Q01DX001 (ip), vehicle: saline 95 % of control and 104 % of control | dose: 2.5 mg/kg/injection, schedule: Q01DX001 (ip), vehicle: saline 100 % of control and 110 % of control | dose: 5.0 mg/kg/injection, schedule: Q01DX001 (ip), vehicle: saline 100 % of control | dose: 10.0 mg/kg/injection, schedule: Q01DX001 (ip), vehicle: saline 100 % of control and 109 % of control

COc1cc2oc(=O)c3c(c2cc1OC)CCN(CCN1CCCCC1)C3
inactive: dose: 50.0 mg/kg/injection, schedule: Q04DX002 (ip), vehicle: saline 101 % of control | dose: 100.0 mg/kg/injection, schedule: Q04DX002 (ip), vehicle: saline 100 % of control | dose: 200.0 mg/kg/injection, schedule: Q04DX002 (ip), vehicle: saline 108 % of control

Cc1nc2ccccc2c(=O)n1/N=C/c1ccco1
inactive: [4] 107 % of control | [5] 90 % of control

COC(=O)c1cc[nH]c1CC(=O)O
inactive: dose: 100.0 mg/kg/injection, schedule: Q01DX001 (ip), vehicle: saline with Tween-80 101 % of control | dose: 200.0 mg/kg/injection, schedule: Q01DX001 (ip), vehicle: saline with Tween-80 106 % of control | dose: 400.0 mg/kg/injection, schedule: Q01DX001 (ip), vehicle: saline with Tween-80 110 % of control

Cn1c(=O)c(S(C)=O)c(O)c2ccccc21 (centres undefined)
inactive: [4] 118 % of control | [5] 100 % of control | dose: 200.0 mg/kg/injection, schedule: Q01DX009 (ip), vehicle: saline with Tween-80 112 % of control

N#C[S-].N#C[S-].[NH-]CC[NH-].[Pt+4]
inactive: dose: 10.0 mg/kg/injection, schedule: Q01DX009 (ip), vehicle: saline with Tween-80 113 % of control | dose: 10.0 mg/kg/injection, schedule: Q04DX003 (ip), vehicle: saline with Tween-80 104 % of control | dose: 20.0 mg/kg/injection, schedule: Q04DX003 (ip), vehicle: saline with Tween-80 100 % of control | dose: 26.4 mg/kg/injection, schedule: Q01DX009 (ip), vehicle: saline with Tween-80 90 % of control | dose: 40.0 mg/kg/injection, schedule: Q01DX009 (ip), vehicle: saline with Tween-80 90 % of control | dose: 40.0 mg/kg/injection, schedule: Q04DX003 (ip), vehicle: saline with Tween-80 86 % of control | dose: 60.0 mg/kg/injection, schedule: Q01DX009 (ip), vehicle: saline with Tween-80 118 % of control

CCCCNC1(C#N)CCN(Cc2ccccc2)CC1
inactive: dose: 6.0 mg/kg/injection, schedule: Q04DX003 (ip), vehicle: Klucel (hydroxypropylcellulose) (HPC) 104 % of control | dose: 12.0 mg/kg/injection, schedule: Q04DX003 (ip), vehicle: Klucel (hydroxypropylcellulose) (HPC) 100 % of control | dose: 12.5 mg/kg/injection, schedule: Q01DX009 (ip), vehicle: Klucel (hydroxypropylcellulose) (HPC) 100 % of control | dose: 25.0 mg/kg/injection, schedule: Q01DX009 (ip), vehicle: Klucel (hydroxypropylcellulose) (HPC) 91 % of control | dose: 25.0 mg/kg/injection, schedule: Q04DX003 (ip), vehicle: Klucel (hydroxypropylcellulose) (HPC) 96 % of control and 112 % of control

ClC(c1ccccc1)C1(Br)C=c2ccccc2=C1 (centres undefined)
inactive: dose: 50.0 mg/kg/injection, schedule: Q01DX009 (ip), vehicle: Klucel (hydroxypropylcellulose) (HPC) 95 % of control | dose: 50.0 mg/kg/injection, schedule: Q04DX003 (ip), vehicle: Klucel (hydroxypropylcellulose) (HPC) 95 % of control | dose: 100.0 mg/kg/injection, schedule: Q01DX009 (ip), vehicle: Klucel (hydroxypropylcellulose) (HPC) 90 % of control | dose: 100.0 mg/kg/injection, schedule: Q04DX003 (ip), vehicle: Klucel (hydroxypropylcellulose) (HPC) 91 % of control | dose: 200.0 mg/kg/injection, schedule: Q04DX003 (ip), vehicle: Klucel (hydroxypropylcellulose) (HPC) 100 % of control

CCOC(=O)c1c[nH]c(=O)c([N+](=O)[O-])c1O
inactive: [5] 96 % of control | [1] 108 % of control | [2] 95 % of control | [3] 112 % of control
